SMILES strings stand for the structures. Where two headings read alike, the source gives them in different places.

From US9796720B2, “Imidazole-derived modulators of the glucocorticoid receptor” (BRISTOL-MYERS SQUIBB COMPANY, priority 2013, dated 2017) come the findings set out here.

One assay deals with AP-1. Kind of assay: Cellular transrepressional assay (AP-1 luciferase reporter in A549 cells, PMA-activated). Format: cell-based. The following applies: for EC50: read-out: AP-1 (EC50, nM) (measured in cellular transrepression assay); for Emax: read-out: AP-1 Max % inhibition (measured in cellular transrepression assay). As for the experimental part:
Cellular Transrepressional Assay
To measure the ability of test molecules to inhibit AP-1 induced transcriptional activity we utilized an A549 cell which was stably transfected with a plasmid containing 7×AP-1 DNA binding sites (pAP-1-Luc plasmid, Stratagene Co. La Jolla, Calif.) followed by the gene for luciferase. Cells were activated with 10 ng/ml of phorbol myristic acid (PMA) plus or minus test molecules for 7 hours. After 7 hours a luciferase reagent was added to measure luciferase enzymatic activity in the cell. After a 10 minute incubation of luciferase reagent with cells, luminescence was measured in a TOPCOUNT® luminescence counter. Repression of AP-1 activity was calculated as the percentage decrease in the signal induced by PMA alone. Test molecules were analyzed in the concentration range from 0.1 nM to 40 μM. EC50s were determined by using standard curve fitting methods such as Excel fit (Microsoft Co.). An EC50 is the test molecule concentration at which there is a 50% repression of the maximal inhibition of transcription, i.e., a 50% reduction of AP-1 activity.
In general terms: Reporter assays use an easily measured gene product as a stand-in for the process of interest.

For assay [1], the target named is human full-length glucocorticoid receptor (Homo sapiens (Human), UniProt P04150). The assay is described as follows: Glucocorticoid Receptor Binding Assay (II), fluorescence polarization competitor assay. The following applies: recombinant human full-length GR cell lysate, Fluormone GS1; read-out: GR (Ki, nM) (measured in GR binding Assay II). As for the experimental part:
Glucocorticoid Receptor Binding Assay (II)
In order to measure the binding of compounds on the glucocorticoid receptor a commercially available kit was used (Glucocorticoid receptor competitor assay kit, PanVera Co., Madison, Wis., P2816). Briefly, a cell lysate containing recombinantly expressed human full-length glucocorticoid receptor was mixed with a fluorescently labeled glucocorticoid (1 nM Fluormone GS1) in the presence or absence of test compound. After one hour at room temperature, the fluorescence polarization (FP) of the samples were measured.
Background: Polarisation of emitted light reports the rotation of a fluorescent probe.

The mark [2] stands for this setting: A549 cells, 7xAP-1 luciferase, PMA 10 ng/ml, 7 hours.

Chain of human full-length glucocorticoid receptor (P04150 whole entry): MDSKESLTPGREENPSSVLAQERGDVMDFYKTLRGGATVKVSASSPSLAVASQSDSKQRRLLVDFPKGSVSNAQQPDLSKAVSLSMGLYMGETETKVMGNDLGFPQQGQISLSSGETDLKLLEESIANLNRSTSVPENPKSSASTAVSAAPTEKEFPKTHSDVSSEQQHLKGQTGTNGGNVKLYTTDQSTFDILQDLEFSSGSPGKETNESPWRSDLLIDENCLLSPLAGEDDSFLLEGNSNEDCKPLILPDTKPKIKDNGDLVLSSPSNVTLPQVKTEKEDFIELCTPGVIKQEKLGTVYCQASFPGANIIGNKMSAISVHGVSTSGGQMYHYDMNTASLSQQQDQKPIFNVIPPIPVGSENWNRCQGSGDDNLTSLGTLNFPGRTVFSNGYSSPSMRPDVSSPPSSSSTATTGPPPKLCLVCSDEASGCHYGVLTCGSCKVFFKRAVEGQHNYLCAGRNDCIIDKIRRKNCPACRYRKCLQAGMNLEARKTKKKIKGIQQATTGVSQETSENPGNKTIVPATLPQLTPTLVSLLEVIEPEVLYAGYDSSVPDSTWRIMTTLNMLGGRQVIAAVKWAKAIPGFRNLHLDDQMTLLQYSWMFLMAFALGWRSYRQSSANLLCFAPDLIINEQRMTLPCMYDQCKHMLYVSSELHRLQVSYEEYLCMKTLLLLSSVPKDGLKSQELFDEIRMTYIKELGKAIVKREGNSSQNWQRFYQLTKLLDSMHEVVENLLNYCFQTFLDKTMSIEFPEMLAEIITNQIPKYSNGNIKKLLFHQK

Usually EC50 stands for the concentration needed to bring the measured effect to its halfway point. One may read the Ki as the equilibrium dissociation constant of an inhibitor or competing ligand from its target. Regarding `CC(C)(c1nc2nccnc2[nH]1)[C@@H]1c2ccc(-c3ccc(C(=O)N4CCOCC4)cc3)nc2Oc2c(F)cccc21` [Example 1, (S)-(4-(5-(2-(1H-Imidazo[4,5-b]pyrazin-2-yl)propan-2-yl)-9-fluoro-5H-chromeno[2,3-b]pyridin-2-yl)phenyl)(morpholino)methanone], in the assay on AP-1 (setting [2]), the concentration for a half-maximal effect (EC50) worked out at 8.33 nM and the Emax worked out at 65.2%. In assay [1], the inhibition constant Ki is 57 nM.
As for `CC(=O)c1ccc(-c2ccc3c(n2)Oc2c(F)cccc2[C@@H]3C(C)(C)c2nc3nccnc3[nH]2)cc1` [Example 2, (S)-1-(4-(5-(2-(1H-Imidazo[4,5-b]pyrazin-2-yl)propan-2-yl)-9-fluoro-5H-chromeno[2,3-b]pyridin-2-yl)phenyl)ethanone], in the assay on AP-1 (7 h), the EC50 amounted to 4.39 nM and the Emax came to 59.7%. Also, in assay [1], the Ki came out at 3.28 nM.
Regarding `CC(C)(O)c1ccc(-c2ccc3c(n2)Oc2c(F)cccc2[C@@H]3C(C)(C)c2nc3nccnc3[nH]2)cc1` [Example 3, (S)-2-(4-(5-(2-(1H-Imidazo[4,5-b]pyrazin-2-yl)propan-2-yl)-9-fluoro-5H-chromeno[2,3-b]pyridin-2-yl)phenyl)propan-2-ol], in the assay with AP-1 (setting [2]), the concentration for a half-maximal effect (EC50) came out at 3.85 nM and the Emax stood at 65%. Also, the Ki in assay [1] was determined as 2.35 nM.
Consider `CN(C)C(=O)c1ccc(-c2ccc3c(n2)Oc2c(F)cccc2[C@@H]3C(C)(C)c2nc3nccnc3[nH]2)cc1` [Example 4, (S)-4-(5-(2-(1H-Imidazo[4,5-b]pyrazin-2-yl)propan-2-yl)-9-fluoro-5H-chromeno[2,3-b]pyridin-2-yl)-N,N-dimethylbenzamide], for which, in the assay with AP-1 (setting [2]), the EC50 is 4.94 nM and the Emax was found to be 73.1%. In addition, the Ki in assay [1] was 2.63 nM.
Turning to `CC(C)(c1nc2nccnc2[nH]1)[C@@H]1c2ccc(-c3ccc(S(C)(=O)=O)cc3)nc2Oc2c(F)cccc21` [Example 5, (S)-5-(2-(1H-Imidazo[4,5-b]pyrazin-2-yl)propan-2-yl)-9-fluoro-2-(4-(methylsulfonyl)phenyl)-5H-chromeno[2,3-b]pyridine], in the assay with AP-1 (7 h), the half-maximal effective concentration (EC50) turned out to be 29.5 nM and the Emax was 55.8%. Further, in assay [1], the Ki was found to be 2.89 nM.
In the case of `CCS(=O)(=O)c1ccc(-c2ccc3c(n2)Oc2c(F)cccc2[C@@H]3C(C)(C)c2nc3nccnc3[nH]2)cc1` [Example 6, (S)-5-(2-(1H-Imidazo[4,5-b]pyrazin-2-yl)propan-2-yl)-2-(4-(ethylsulfonyl)phenyl)-9-fluoro-5H-chromeno[2,3-b]pyridine], in the assay on AP-1 (setting [2]), the concentration giving a half-maximal response (EC50) amounted to 15.5 nM and the Emax is 58.2%. Besides, the inhibitory constant (Ki) in assay [1] is 2.34 nM.
`CC(C)S(=O)(=O)c1ccc(-c2ccc3c(n2)Oc2c(F)cccc2[C@@H]3C(C)(C)c2nc3nccnc3[nH]2)cc1` [Example 7, (S)-5-(2-(1H-Imidazo[4,5-b]pyrazin-2-yl)propan-2-yl)-9-fluoro-2-(4-(isopropylsulfonyl)phenyl)-5H-chromeno[2,3-b]pyridine]: in the assay with AP-1 (7 h), the EC50 stood at 12.2 nM and the Emax stood at 54.2%. Moreover, the inhibition constant Ki in assay [1] came to 1.4 nM.
For `CC(C)Oc1ccc(-c2ccc3c(n2)Oc2c(F)cccc2[C@@H]3C(C)(C)c2nc3nccnc3[nH]2)cc1` [Example 8, (S)-5-(2-(1H-Imidazo[4,5-b]pyrazin-2-yl)propan-2-yl)-9-fluoro-2-(4-isopropoxyphenyl)-5H-chromeno[2,3-b]pyridine], in the assay on AP-1 (setting [2]), the half-maximal effective concentration (EC50) amounted to 9.82 nM and the Emax was determined as 69.8%. In addition, the Ki in assay [1] was 0.76 nM.
Take `CC(C)Oc1ccc(-c2ccc3c(n2)Oc2c(F)cccc2[C@@H]3C(C)(C)c2nc3nccnc3[nH]2)cc1Cl` [Example 9, (S)-5-(2-(1H-Imidazo[4,5-b]pyrazin-2-yl)propan-2-yl)-2-(3-chloro-4-isopropoxyphenyl)-9-fluoro-5H-chromeno[2,3-b]pyridine]: in the assay on AP-1 (setting [2]), the concentration giving a half-maximal response (EC50) came out at 291 nM and the Emax worked out at 43.7%. Moreover, the Ki in assay [1] was 2.1 nM.
For `CC(C)Oc1ccc(-c2ccc3c(n2)Oc2c(F)cccc2[C@@H]3C(C)(C)c2nc3nccnc3[nH]2)cc1F` [Example 10, (S)-5-(2-(1H-Imidazo[4,5-b]pyrazin-2-yl)propan-2-yl)-9-fluoro-2-(3-fluoro-4-isopropoxyphenyl)-5H-chromeno[2,3-b]pyridine], in that order: 20.1 nM, 70.2% and 0.67 nM.
Consider `CC(C)(C)Oc1ccc(-c2ccc3c(n2)Oc2c(F)cccc2[C@@H]3C(C)(C)c2nc3nccnc3[nH]2)cc1` [Example 11, (S)-5-(2-(1H-Imidazo[4,5-b]pyrazin-2-yl)propan-2-yl)-2-(4-tert-butoxyphenyl)-9-fluoro-5H-chromeno[2,3-b]pyridine], for which, in the assay on AP-1 (7 h), the EC50 is 37.5 nM and the Emax was 76.3%. Moreover, the inhibition constant Ki in assay [1] was 0.82 nM.
`CCOc1ccc(-c2ccc3c(n2)Oc2c(F)cccc2[C@@H]3C(C)(C)c2nc3nccnc3[nH]2)cc1` [Example 12, (S)-5-(2-(1H-Imidazo[4,5-b]pyrazin-2-yl)propan-2-yl)-2-(4-ethoxyphenyl)-9-fluoro-5H-chromeno[2,3-b]pyridine]: in the assay with AP-1 (setting [2]), the EC50 was 14.4 nM and the Emax was 62.6%. The inhibition constant Ki in assay [1] worked out at 0.66 nM.
On the same counts, the results for `CC(C)(c1nc2nccnc2[nH]1)[C@@H]1c2ccc(-c3ccc(OC(F)(F)F)cc3)nc2Oc2c(F)cccc21` [Example 13, (S)-5-(2-(1H-Imidazo[4,5-b]pyrazin-2-yl)propan-2-yl)-9-fluoro-2-(4-(trifluoromethoxy)phenyl)-5H-chromeno[2,3-b]pyridine] are 55.1 nM, 55.5% and 2.36 nM.
On the same counts, the results for `CC(C)(c1nc2ccccc2[nH]1)[C@@H]1c2ccc(-c3ccc(C(=O)N4CCOCC4)cc3)nc2Oc2c(F)cccc21` [Example 14, (S)-(4-(5-(2-(1H-Benzo[d]imidazol-2-yl)propan-2-yl)-9-fluoro-5H-chromeno[2,3-b]pyridin-2-yl)phenyl)(morpholino)methanone] are 284 nM, 31.6% and 16.1 nM.
With `CC(C)(c1nc2cccnc2[nH]1)[C@@H]1c2ccc(-c3ccc(C(=O)N4CCOCC4)cc3)nc2Oc2c(F)cccc21` [Example 15, (S)-(4-(5-(2-(3H-Imidazo[4,5-b]pyridin-2-yl)propan-2-yl)-9-fluoro-5H-chromeno[2,3-b]pyridin-2-yl)phenyl)(morpholino)methanone], in the assay with AP-1 (setting [2]), the EC50 was 864 nM and the Emax amounted to 29.3%. In addition, the Ki in assay [1] is 121 nM.
On the same counts, the results for `CC(C)(c1nc2cncnc2[nH]1)[C@@H]1c2ccc(-c3ccc(C(=O)N4CCOCC4)cc3)nc2Oc2c(F)cccc21` [Example 16, (S)-(4-(5-(2-(9H-Purin-8-yl)propan-2-yl)-9-fluoro-5H-chromeno[2,3-b]pyridin-2-yl)phenyl)(morpholino)methanone] are 169 nM, 52.2% and 12.4 nM.
For `CC(C)(c1nc2cncnc2[nH]1)[C@@H]1c2ccc(-c3ccc(S(C)(=O)=O)cc3)nc2Oc2c(F)cccc21` [Example 17, (S)-5-(2-(9H-Purin-8-yl)propan-2-yl)-9-fluoro-2-(4-(methylsulfonyl)phenyl)-5H-chromeno[2,3-b]pyridine], in that order: 2500 nM, 27.3% and 65.8 nM.
For the molecule `CC(C)(c1nc2nccnc2[nH]1)[C@@H]1c2ccc(-c3ccc(N4CCOCC4)cc3)nc2Oc2c(F)cccc21` [Example 18, (S)-5-(2-(1H-Imidazo[4,5-b]pyrazin-2-yl)propan-2-yl)-9-fluoro-2-(4-morpholinophenyl)-5H-chromeno[2,3-b]pyridine], in the assay on AP-1 (setting [2]), the EC50 was 61.1 nM and the Emax was determined as 50.6%. In addition, the Ki in assay [1] turned out to be 16 nM.
On the same counts, the results for `CC(=O)Nc1ccc(-c2ccc3c(n2)Oc2c(F)cccc2[C@@H]3C(C)(C)c2nc3nccnc3[nH]2)cc1` [Example 19, (S)-N-(4-(5-(2-(1H-Imidazo[4,5-b]pyrazin-2-yl)propan-2-yl)-9-fluoro-5H-chromeno[2,3-b]pyridin-2-yl)phenyl)acetamide] are 1950 nM, 44.6% and 70.5 nM.
For `CC(C)(c1nc2nccnc2[nH]1)[C@@H]1c2ccc(-c3ccccc3)nc2Oc2c(F)cccc21` [Example 20, (S)-5-(2-(1H-Imidazo[4,5-b]pyrazin-2-yl)propan-2-yl)-9-fluoro-2-phenyl-5H-chromeno[2,3-b]pyridine], in that order: 14.2 nM, 40% and 1.4 nM.
For `CC(C)(c1nc2nccnc2[nH]1)[C@@H]1c2ccc(-c3ccncc3)nc2Oc2c(F)cccc21` [Example 21, (S)-5-(2-(1H-Imidazo[4,5-b]pyrazin-2-yl)propan-2-yl)-9-fluoro-2-(pyridin-4-yl)-5H-chromeno[2,3-b]pyridine], in that order: 21.1 nM, 45.9% and 3.92 nM.
